Measurements from US20180186769A1, “6-AMINO-5-FLUORO-5-(FLUOROMETHYL)-2,3,4,5-TETRAHYDROPYRIDIN-2-YL-PHENYL-5-(METHOXY-D3)-PYRAZINE-2-CARBOXAMIDES AND FLUORINATED DERIVATIVES THEREOF AS BACE1 INHIBITORS” (H. Lundbeck A/S, priority 2016, published 2018).
Read-outs that look alike come from different tables or passages of the source.

Key:
[1] = Clearance in microsomes, dog; assay type: in vitro ADME; details: 1 microM, read-out: CLint, Dog (L/h/kg) ± SD (converted)
Excerpt: (§1) Deuterated compounds were compared to their non-deuterated parent counterparts to determine the impact of deuteration on clearance results

[2] = Clearance in hepatocytes, cyno; assay type: in vitro ADME; details: cynomolgus monkey, read-out: CLint, Cyno (L/h/kg) ± SD (converted)
Excerpt: as §1

[3] = Bioanalysis of brain and plasma samples (UPLC-MS/MS); assay type: in vivo, Sprague Dawley rats; details: male, po, rat, p.o.; for Kp at 0.5 h / Kp at 1 h / Kp at 3 h / Kp at 6 h / Kp at 12 h: read-out: Brain/Plasma ratio
Experimental: Young adult Male Sprague Dawley rats of approximately 250 g weight were purchased from Charles River and received vehicle (2.5% HP betaCD+1M MeSO4, pH 2.5) or 0-40 mg/kg of test compounds (dissolved in vehicle) by oral gavage (p.o). The compounds are dosed at a volume of 5 ml/kg. Cohorts of 5-10 animals were established for each treatment condition.
Studies were set up as acute dose response treatment studies were samples were taken at T=180 minutes after initial dosing, or as 12 h or 24 h timecourse treatment studies. At the end of the test period, the animals were stunned and decapitated with a guillotine. Trunk-blood was sampled in EDTA coated tubes after decapitation of the animal. The blood was centrifuged at 2200G at 4° C. for 15 minutes and the plasma was collected and frozen at −80° C. The blood was aliquoted for Aβ ELISA and DMPK analysis. Immediately following sacrifice, the brain was extracted and split into 2 halves. The left half was dissected; with the front forebrain taken for Aβ ELISA and the remainder used for DMPK analysis. These samples were also snap frozen on dry ice and stored at −80° C. until use for analysis. The right hemibrains were snap frozen on dry ice and stored at −80° C. for independent confirmatory Aβ ELISA evalution.
TC was determined in plasma and brain homogenate using UltraPerformance LC® (UPLC®) chromatography followed by tandem-MS (MS/MS) detection.
Brain homogenate was prepared by homogenizing the brain 1:4 (v/v) with water:2-propanol:DMSO (50:30:20 v/v/v) followed by centrifugation and collection of the supernatant. Calibration standards and QC samples were prepared using a Hamilton robot. 150 μL of ISTD in acetonitrile (1 ng/mL ISTD) was added to 25 μL of calibration standards, QC samples and test samples (plasma and brain homogenate) using a Biomek robot. After centrifugation (6200 g, 4° C., 20 min) 100 μL supernatant from each sample was transferred to a new plate and mixed with 100 μL water with 0.1% formic acid using a Biomek robot (method file InVivo transfer). After a quick centrifugation (6200 g, 4° C., 5 min) the samples were placed in the auto-sampler.
MS/MS detection was done with an Applied Biosystems Sciex API 4000 instrument in positive-ion electrospray ionisation mode. TC and ISTD were detected at a parent>daughter mass to charge ratio (m/z). Nitrogen was used for the nebulizer and collision gases. The peak area correlated linearly with the plasma and brain concentration of the analytes in the range of 1.00-1000 ng/mL plasma and 5.00-5000 ng/g brain (corrected for dilution). If the plasma/brain sample drug concentration was above 1000 ng/mL or 5000 ng/g, the sample was diluted appropriately in blank plasma/blank brain homogenate before analysis.

[4] = Sprague Dawley, brain and plasma, 10 mg/kg
[5] = Sprague Dawley, brain, 10 mg/kg, read-out: Mean rat brain conc.
[6] = Sprague Dawley, plasma, 10 mg/kg, read-out: Mean rat plasma conc.
[7] = Sprague-Dawley, brain, 20 mg/kg, read-out: Mean rat brain conc.
[8] = Sprague-Dawley, brain, 40 mg/kg, read-out: Mean rat brain conc.
[9] = Sprague-Dawley, brain/plasma, 20 mg/kg
[10] = Sprague-Dawley, brain/plasma, 40 mg/kg
[11] = Sprague-Dawley, plasma, 20 mg/kg, read-out: Mean rat plasma conc.
[12] = Sprague-Dawley, plasma, 40 mg/kg, read-out: Mean rat plasma conc.

What does the source list for [2H]C([2H])([2H])Oc1cnc(C(=O)Nc2ccc(F)c([C@]3(C)CC[C@@](F)(CF)C(N)=N3)c2)cn1 [Example 1, N-(3-((2S,5S)-6-amino-5-fluoro-5-(fluoromethyl)-2-methyl-2,3,4,5-tetrahydropyridin-2-yl)-4-fluorophenyl)-5-(methoxy-d3)pyrazine-2-carboxamide]?
CLint scaled at 1 µM [1]: 5 L/h/kg; CLint scaled at 0.1 µM ([2]; 0.1 microM): 75 L/h/kg; CLint scaled at 0.3 µM ([2]; 0.3 microM): 74 L/h/kg; CLint scaled at 1 µM ([2]; 1 microM): 20 L/h/kg; Kp at 0.5 h [3, 4]: 1.8; Kp at 1 h [3, 4]: 2.3; Kp at 3 h [3, 4]: 2.1; Kp at 6 h [3, 4]: 1.9; Kp at 12 h [3, 4]: 1.7; concentration at 0.5 h [3, 5]: 550 ng/g; concentration at 1 h [3, 5]: 1100 ng/g; concentration at 3 h [3, 5]: 700 ng/g; concentration at 6 h [3, 5]: 430 ng/g; concentration at 12 h [3, 5]: 140 ng/g; concentration at 0.5 h [3, 6]: 300 ng/mL; concentration at 1 h [3, 6]: 500 ng/mL; concentration at 3 h [3, 6]: 340 ng/mL; concentration at 6 h [3, 6]: 230 ng/mL; concentration at 12 h [3, 6]: 79 ng/mL; concentration at 0.5 h [3, 7]: 1530 ng/g; concentration at 1 h [3, 7]: 2380 ng/g; concentration at 3 h [3, 7]: 1960 ng/g; concentration at 6 h [3, 7]: 1540 ng/g; concentration at 12 h [3, 7]: 438 ng/g; concentration at 0.5 h [3, 8]: 2500 ng/g; concentration at 1 h [3, 8]: 2800 ng/g; concentration at 3 h [3, 8]: 3000 ng/g; concentration at 6 h [3, 8]: 3700 ng/g; concentration at 12 h [3, 8]: 1100 ng/g; Kp at 0.5 h [3, 9]: 2.9; Kp at 1 h [3, 9]: 3.9; Kp at 3 h [3, 9]: 3.4; Kp at 6 h [3, 9]: 3.2; Kp at 12 h [3, 9]: 2.7; Kp at 0.5 h [3, 10]: 2.8; Kp at 1 h [3, 10]: 3.1; Kp at 3 h [3, 10]: 2.8; Kp at 6 h [3, 10]: 3; Kp at 12 h [3, 10]: 2.5; concentration at 0.5 h [3, 11]: 532 ng/mL; concentration at 1 h [3, 11]: 614 ng/mL; concentration at 3 h [3, 11]: 572 ng/mL; concentration at 6 h [3, 11]: 477 ng/mL; concentration at 12 h [3, 11]: 159 ng/mL; concentration at 0.5 h [3, 12]: 740 ng/mL; concentration at 1 h [3, 12]: 880 ng/mL; concentration at 3 h [3, 12]: 1100 ng/mL; concentration at 6 h [3, 12]: 1200 ng/mL; concentration at 12 h [3, 12]: 410 ng/mL
